Data on 25 compounds can be found in patent US20180155344A1, “TRICYCLIC PIPERIDINE COMPOUNDS” (ACTELION PHARMACEUTICALS LTD, priority 2015, published 2018).

The target of one test is T1, human TPH1 (Homo sapiens, UniProt P17752).
T1 sequence (P17752 1-444): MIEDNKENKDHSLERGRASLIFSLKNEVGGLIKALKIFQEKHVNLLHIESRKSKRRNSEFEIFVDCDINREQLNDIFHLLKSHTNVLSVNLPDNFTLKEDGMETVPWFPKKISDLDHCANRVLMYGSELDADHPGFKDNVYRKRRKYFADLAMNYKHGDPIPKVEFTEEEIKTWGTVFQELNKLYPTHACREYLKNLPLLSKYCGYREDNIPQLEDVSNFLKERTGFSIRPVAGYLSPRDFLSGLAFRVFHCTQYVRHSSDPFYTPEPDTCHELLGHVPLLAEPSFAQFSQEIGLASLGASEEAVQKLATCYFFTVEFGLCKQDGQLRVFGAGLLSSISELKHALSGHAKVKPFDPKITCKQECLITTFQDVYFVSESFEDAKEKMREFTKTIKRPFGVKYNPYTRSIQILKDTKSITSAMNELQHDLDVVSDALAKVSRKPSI
The test can be described thus: biochemical.
Conditions: not given
In outline:
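Inhibition is derived from 5-hydroxy-L-tryptophan fluorescence (540 nm emission, 300 nm excitation) after perchloric acid stop, relative to DMSO vehicle. Recombinant full-length human enzyme (40-80 nM) reacts with 40 μM tryptophan plus 100 μM methyltetrahydropterin, pH 7.6 Tris/DTT/catalase, 15° C, 60 min.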
In turn, `CCc1nc(C)ccc1OCC(=O)N1CCc2nc3cc(C(F)(F)F)ccn3c2C1c1ccc(Cl)cc1F` (stereo not shown) [Example 3.4.4, 1-(1-(4-chloro-2-fluorophenyl)-7-(trifluoromethyl)-3,4-dihydroimidazo[1,2-a:5,4-c′]dipyridin-2(1H)-yl)-2-((2-ethyl-6-methylpyridin-3-yl)oxy)ethan-1-one] yielded an IC50 of 21 nM. Still for that read-out and setting: then `O=C(COc1ccc(CN2CCOCC2)nc1Cl)N1CCc2nc3ccccn3c2C1c1ccc(Cl)cc1F` (stereo not shown) [Example 1.4.4, 1-(1-(4-chloro-2-fluorophenyl)-3,4-dihydroimidazo[1,2-a:5,4-c′]dipyridin-2(1H)-yl)-2-((2-chloro-6-(morpholinomethyl)pyridin-3-yl)oxy)ethan-1-one], with 90 nM; and `COc1ccc(C2c3c(nc4cc(C(F)(F)F)ccn34)CCN2C(=O)COc2ccc3ccccc3c2)cn1` (stereo not shown) [Example 3.6.1, 1-(1-(6-methoxypyridin-3-yl)-7-(trifluoromethyl)-3,4-dihydroimidazo[1,2-a:5,4-c′]dipyridin-2(1H)-yl)-2-(naphthalen-2-yloxy)ethan-1-one], with 52 nM; and `CCc1nc(C)ccc1OCC(=O)N1CCc2nc3cc(C(F)(F)F)ccn3c2C1c1ccc(C)cc1F` (stereo not shown) [Example 3.22.4, 2-((2-ethyl-6-methylpyridin-3-yl)oxy)-1-(1-(2-fluoro-4-methylphenyl)-7-(trifluoromethyl)-3,4-dihydroimidazo[1,2-a:5,4-c′]dipyridin-2(1H)-yl)ethan-1-one], with 17 nM. Same read-out and setting: in the case of `O=C(COc1cccnc1C(F)(F)F)N1CCc2nc3cccnn3c2C1c1ncc(C2CC2)cc1F` (stereo not shown) [Example 16.2.3, 1-(9-(5-cyclopropyl-3-fluoropyridin-2-yl)-6,9-dihydropyrido[4′,3′:4,5]imidazo[1,2-b]pyridazin-8(7H)-yl)-2-((2-(trifluoromethyl)pyridin-3-yl)oxy)ethan-1-one] it was 144 nM. On the same count and under the same terms, in the case of `COc1ccc(C2c3c(nc4cc(C(F)(F)F)ccn34)CCN2C(=O)COc2ccc(CN3CCOCC3)c(C)c2C)c(F)c1` (stereo not shown) [Example 3.3.3, 2-(2,3-dimethyl-4-(morpholinomethyl)phenoxy)-1-(1-(2-fluoro-4-methoxyphenyl)-7-(trifluoromethyl)-3,4-dihydroimidazo[1,2-a:5,4-c′]dipyridin-2(1H)-yl)ethan-1-one] it was 8 nM; in that of `O=C(COc1ccc(N2CCOCC2)cc1Cl)N1CCc2nc3cc(Cl)ccn3c2[C@H]1c1cccnc1F` [Example 2.2.2, 1-((1R)-7-chloro-1-(2-fluoropyridin-3-yl)-3,10a-dihydroimidazo[1,2-a:5,4-c′]dipyridin-2(1H)-yl)-2-(2-chloro-4-morpholinophenoxy)ethan-1-one], 124 nM; in that of `O=C(COc1ccc2ccccc2c1)N1CCc2nc3cc(C(F)(F)F)ccn3c2C1c1ccc(Cl)nc1` (stereo not shown) [Example 3.37.2, 1-(1-(6-chloropyridin-3-yl)-7-(trifluoromethyl)-3,4-dihydroimidazo[1,2-a:5,4-c′]dipyridin-2(1H)-yl)-2-(naphthalen-2-yloxy)ethan-1-one], 57 nM.

`Cc1cc(C2c3c(nc4cc(C(F)(F)F)ccn34)CCN2C(=O)COc2ccc(CN3CCOCC3)cc2Cl)ccc1F` (stereo not shown) [Example 3.33.2, 2-(2-chloro-4-(morpholinomethyl)phenoxy)-1-(1-(4-fluoro-3-methylphenyl)-7-(trifluoromethyl)-3,4-dihydroimidazo[1,2-a:5,4-c′]dipyridin-2(1H)-yl)ethan-1-one] displayed an IC50 of 110 nM. Same read-out and setting: in the case of `COc1ccc(C2c3c(nc4cc(C(F)(F)F)ccn34)CCN2C(=O)COc2ccc(CN3CCOCC3)cc2Cl)cc1OC` (stereo not shown) [Example 3.1.26, 2-(2-chloro-4-(morpholinomethyl)phenoxy)-1-(1-(3,4-dimethoxyphe-nyl)-7-(trifluoromethyl)-3,4-dihydroimidazo[1,2-a:5,4-c′]dipyridin-2(1H)-yl)ethan-1-one] it was 17 nM; in that of `O=C(COc1ccc(CN2CCOCC2)cc1Cl)N1CCc2nc3cc(C(F)(F)F)ccn3c2C1c1ccc(OC(F)F)cc1` (stereo not shown) [Example 3.26.2, 2-(2-chloro-4-(morpholinomethyl)phenoxy)-1-(1-(4-(difluoromethoxy)phenyl)-7-(trifluoromethyl)-3,4-dihydroimidazo[1,2-a:5,4-c′]dipyridin-2(1H)-yl)ethan-1-one], 54 nM. Take `Cc1ccc(C2c3c(nc4cc(C(F)(F)F)ccn34)CCN2C(=O)COc2ccc3ccccc3c2)cc1` (stereo not shown) [Example 3.23.1, 2-(naphthalen-2-yloxy)-1-(1-(p-tolyl)-7-(trifluoromethyl)-3,4-dihydroimidazo[1,2-a:5,4-c′]dipyridin-2(1H)-yl)ethan-1-one]: the IC50 is 67 nM.

`O=C(COc1ccc(CN2CCOCC2)cc1Cl)N1CCc2nc3cc(C(F)(F)F)ccn3c2C1c1cccnc1F` (stereo not shown) [Example 3.2.1, 2-(2-chloro-4-(morpholinomethyl)phenoxy)-1-(1-(2-fluoropyridin-3-yl)-7-(trifluoromethyl)-3,4-dihydroimidazo[1,2-a:5,4-c′]dipyridin-2(1H)-yl)ethan-1-one] displayed an IC50 of 43 nM. The same measure, in the same setting: in the case of `O=C(COc1ccc(N2CCOCC2)cc1Cl)N1CCc2nc3ccccn3c2C1c1ncc(C2CC2)cc1F` (stereo not shown) [Example 1.12.2, 2-(2-chloro-4-morpholinophenoxy)-1-(1-(5-cyclopropyl-3-fluoropyridin-2-yl)-3,4-dihydroimidazo[1,2-a:5,4-c′]dipyridin-2(1H)-yl)ethan-1-one] it was 23 nM; in that of `COc1ccc(C2c3c(nc4cc(C(F)(F)F)ccn34)CCN2C(=O)COc2ccc(C)cc2)cc1OC` (stereo not shown) [Example 3.1.6, 1-(1-(3,4-dimethoxyphenyl)-7-(trifluoromethyl)-3,4-dihydroimidazo[1,2-a:5,4-c′]dipyridin-2(1H)-yl)-2-(p-tolyloxy)ethan-1-one], 71 nM. On the same count and under the same terms, then `COc1ccc(C2c3c(nc4ccc(Br)cn34)CCN2C(=O)COc2ccc3ccccc3c2)cc1OC` (stereo not shown) [Example 10.1.1, 1-(8-bromo-1-(3,4-dimethoxyphenyl)-3,4-dihydroimidazo[1,2-a:5,4-c′]dipyridin-2(1H)-yl)-2-(naphthalen-2-yloxy)ethan-1-one], with 124 nM; and `COc1ccc(C2c3c(nc4cc(C(F)(F)F)ccn34)CCN2C(=O)COc2ccccc2C(F)(F)F)cc1OC` (stereo not shown) [Example 3.1.7, 1-(1-(3,4-dimethoxyphenyl)-7-(trifluoromethyl)-3,4-dihydroimidazo[1,2-a:5,4-c′]dipyridin-2(1H)-yl)-2-(2-(trifluoromethyl)phenoxy)ethan-1-one], with 29 nM. On the same count and under the same terms, then `O=C(COc1ccc(N2CCOCC2)nc1Cl)N1CCc2nc3ccccn3c2C1c1cnc(N2CCOCC2)s1` (stereo not shown) [Example 1.6.1, 2-((2-chloro-6-morpholinopyridin-3-yl)oxy)-1-(1-(2-morpholinothiazol-5-yl)-3,4-dihydroimidazo[1,2-a:5,4-c′]dipyridin-2(1H)-yl)ethan-1-one], with 387 nM.

`CS(=O)(=O)Nc1ccc(OCC(=O)N2CCc3nc4ccccn4c3C2c2ccc(Cl)cc2F)c(C2CC2)n1` (stereo not shown) [Example 1.4.9, N-(5-(2-(1-(4-chloro-2-fluorophenyl)-3,4-dihydroimidazo[1,2-a:5,4-c′]dipyridin-2(1H)-yl)-2-oxoethoxy)-6-cyclopropylpyridin-2-yl)methanesulfonamide]: the IC50 was found to be 364 nM. The same measure, in the same setting: then `CCc1ncccc1OCC(=O)N1CCc2nc3cc(C(F)(F)F)ccn3c2C1c1ccc(OC)c(OC)c1` (stereo not shown) [Example 3.1.30, 1-(1-(3,4-dimethoxyphenyl)-7-(trifluoromethyl)-3,4-dihydroimidazo[1,2-a:5,4-c′]dipyridin-2(1H)-yl)-2-((2-ethylpyridin-3-yl)oxy)ethan-1-one], with 36 nM; and `Cn1nc(OCC(=O)N2CCc3nc4cc(C(F)(F)F)ccn4c3C2c2ccccc2F)c(Cl)c1C(F)(F)F` (stereo not shown) [Example 3.35.3, 2-((4-chloro-1-methyl-5-(trifluoromethyl)-1H-pyrazol-3-yl)oxy)-1-(1-(2-fluorophenyl)-7-(trifluoromethyl)-3,4-dihydroimidazo[1,2-a:5,4-c′]dipyridin-2(1H)-yl)ethan-1-one], with 338 nM; and `CCc1ncc(C2c3c(nc4cc(C(F)(F)F)ccn34)CCN2C(=O)COc2ccc3ccccc3c2)cn1` (stereo not shown) [Example 3.54.1, 1-(1-(2-ethylpyrimidin-5-yl)-7-(trifluoromethyl)-3,4-dihydroimidazo[1,2-a:5,4-c′]dipyridin-2(1H)-yl)-2-(naphthalen-2-yloxy)ethan-1-one], with 203 nM.

`COc1ccc(C2c3c(nc4cc(Cl)ccn34)CCN2C(=O)COc2ccc3ccccc3c2)cc1OC[C@H](O)CO` (stereo partly drawn) [Example 2.10.1, 1-(7-chloro-1-(3-((R)-2,3-dihydroxypropoxy)-4-methoxyphenyl)-3,4-dihydroimidazo[1,2-a:5,4-c′]dipyridin-2(1H)-yl)-2-(naphthalen-2-yloxy)ethan-1-one] yielded an IC50 of 34 nM.

Staying with this test, now noted: Table 1; full length human TPH1, 40 μM L-tryptophan, 15° C., 60 minutes; mean if determined several times.
“1-(1-(4-(aminomethyl)phenyl)-7-(trifluoromethyl)-3,4-dihydroimidazo[1,2-a:5,4-c′]dipyridin-2(1H)-yl)-2-(naphthalen-2-yloxy)ethan-1-one [Example 3.31.1]” yielded a half-inhibitory concentration (IC50) of 73 nM. Compound “2-((6-(aminomethyl)-2-chloropyridin-3-yl)oxy)-1-(9-(5-cyclopropyl-3-fluoropyridin-2-yl)-6,9-dihydropyrido[4′,3′:4,5]imidazo[1,2-b]pyridazin-8(7H)-yl)ethan-1-one [Example 16.2.4]” returned an IC50 of 401 nM.

A word on the IC50: it is the point on the concentration scale where inhibition reaches its midpoint. Read a high IC50 as weaker potency in that assay.
